We go through 5 compounds from patent US9486422B2, “Small molecule inhibitors of Mcl-1 and the uses of thereof” (THE REGENTS OF THE UNIVERSITY OF MICHIGAN, priority 2011, dated 2016).

The target in test [1] is T1, Mcl-1 (Homo sapiens, UniProt Q07820). As to conditions: cited from earlier work.
Target sequence in this assay (Q07820 whole entry): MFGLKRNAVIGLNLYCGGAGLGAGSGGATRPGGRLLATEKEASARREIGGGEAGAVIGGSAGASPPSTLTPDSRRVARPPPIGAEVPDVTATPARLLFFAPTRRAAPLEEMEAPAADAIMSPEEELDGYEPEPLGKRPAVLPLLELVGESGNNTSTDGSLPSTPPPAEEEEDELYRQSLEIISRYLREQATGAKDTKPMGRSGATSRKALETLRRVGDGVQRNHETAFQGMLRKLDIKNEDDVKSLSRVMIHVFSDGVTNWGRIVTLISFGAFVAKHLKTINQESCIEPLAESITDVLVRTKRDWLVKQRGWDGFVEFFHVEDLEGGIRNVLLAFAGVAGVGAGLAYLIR
A further test concerns the target T2, Bcl-w (Homo sapiens, UniProt Q92843).
T2 sequence (Q92843 1-155): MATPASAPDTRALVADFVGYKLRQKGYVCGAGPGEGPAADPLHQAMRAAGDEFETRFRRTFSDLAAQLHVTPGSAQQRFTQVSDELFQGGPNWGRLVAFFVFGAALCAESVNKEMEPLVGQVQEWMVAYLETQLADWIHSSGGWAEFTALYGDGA
Kind of test: FP-based binding assay, Bcl-w. Conditions: competitive FP, FAM-BID 2 nM, protein 40 nM; read-out: Bcl-w Ki ± SD.

For test [2], the target named is T3, cellular Mcl-1 protein (2LMP cell lysate) (Homo sapiens, UniProt Q07820).
T3 construct: endogenous in cells; host or cells: 2LMP (subclone of MDA-MB-231) cell lysate
In words: Biotin-streptavidin pull-down with biotin-labeled Noxa BH3 peptide. It counts as binding. Here is the method: Human breast cancer 2LMP cells, a subclone of the MDA-MB-231 cell line, were lysed in CHAPS buffer (10 mM HEPES (pH 7.4), 2.5 mM EDTA, 150 mM NaCl, 1.0% CHAP). Pre-cleared cell lysates were incubated with different concentrations of tested compounds, followed by incubation with biotinylated Noxa BH3 peptide (residues 18-43) and streptavidin-agarose beads to pull-down Mcl-1 protein bound to Noxa peptide. Beads were washed with CHAPS buffer, and Mcl-1 protein was eluted by boiling in SDS-PAGE sample buffer and analyzed by Western blotting using Mcl-1 antibody (Santa Cruz). DMSO alone was used as a control for nonspecific pull-down.

A further test deals with T4, A1/Bfl-1 (Homo sapiens, UniProt Q16548).
T4 sequence (Q16548 1-151): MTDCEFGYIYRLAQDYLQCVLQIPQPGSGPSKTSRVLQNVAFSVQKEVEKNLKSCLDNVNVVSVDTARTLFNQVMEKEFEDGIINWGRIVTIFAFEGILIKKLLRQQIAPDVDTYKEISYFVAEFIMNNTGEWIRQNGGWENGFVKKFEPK
In words: FP-based binding assay, A1/Bfl-1. Conditions: read-out: A1/Bfl-1 Ki ± SD.

For test [3], the target named is T1, Mcl-1. Kind of test: FP-based binding assay, Mcl-1. Conditions: for IC50: Flu-BID 2 nM, Mcl-1 90 nM, read-out: Mcl-1 IC50 ± SD; for Ki: read-out: Mcl-1 Ki ± SD.
Target sequence in this assay (Q07820 171-327): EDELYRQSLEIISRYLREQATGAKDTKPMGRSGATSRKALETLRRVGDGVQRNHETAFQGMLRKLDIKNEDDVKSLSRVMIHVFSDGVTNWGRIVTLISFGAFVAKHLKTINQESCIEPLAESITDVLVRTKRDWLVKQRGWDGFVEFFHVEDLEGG
The target of the next test is Bcl-xL (Homo sapiens, UniProt Q07817, DEL45-85). Kind of test: FP-based binding assay, Bcl-xL. Conditions: read-out: Bcl-xL Ki ± SD.
The next test addresses T5, Bcl-2 (Homo sapiens, UniProt P10415).
T5 construct: His-tagged proteins containing; fused on or other part: A 16-residue segment of the flexible loop of Bcl-xL (BCL2L1, Q07817; given as residues 35 to 50) set into the Bcl-2 loop region; His tag with TEV site from the pHis-TEV vector
Kind of test: FP-based binding assay, Bcl-2. Conditions: competitive FP, Flu-BID 2 nM, protein 60 nM; read-out: Bcl-2 Ki ± SD.

Where [4] appears, read: competitive FP, FAM-BID 1 nM, protein 4 nM.
Setting [5] is: competitive FP, Ki calculated from IC50.
The mark [6] stands for this setting: competitive FP, FAM-BID 2 nM, protein 50 nM.

Like-named read-outs stand apart in the source and are kept apart here. Bounds are passed on as bounds.

Sequence of Bcl-xL (Q07817 other isoform, or with tags, fused parts or gaps DEL45-85): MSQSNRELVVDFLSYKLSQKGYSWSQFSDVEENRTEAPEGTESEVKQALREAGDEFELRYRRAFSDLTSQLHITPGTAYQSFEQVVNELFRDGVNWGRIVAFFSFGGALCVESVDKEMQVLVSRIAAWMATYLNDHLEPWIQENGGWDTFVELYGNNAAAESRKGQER
T5 sequence (P10415 with tags, fused parts or gaps with the stated changes): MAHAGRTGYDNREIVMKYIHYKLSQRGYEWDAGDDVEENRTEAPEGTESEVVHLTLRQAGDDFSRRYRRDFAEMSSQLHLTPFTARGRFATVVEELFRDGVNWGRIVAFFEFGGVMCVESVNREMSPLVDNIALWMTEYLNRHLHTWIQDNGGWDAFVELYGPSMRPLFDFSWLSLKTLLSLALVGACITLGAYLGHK
T3 sequence (Q07820 whole entry): as the sequence (Q07820 whole entry) above

In the case of `CN(C)CC[C@H](CSc1ccccc1)Nc1ccc(S(=O)(=O)NC(=O)c2ccc(N3CCN(Cc4ccccc4-c4ccc(Cl)cc4)CC3)cc2)cc1[N+](=O)[O-]` [ABT-737], the “binding to Mcl-1, result in words” value at Mcl-1 [1] is listed as “fails to bind to Mcl-1”.
Regarding `O=C(O)CSc1cc(NS(=O)(=O)c2cccs2)c2ccccc2c1O` [Compound 1, 2-((1-Hydroxy-4-(thiophene-2-sulfonamido)naphthalen-2-yl)thio)acetic acid], the Ki at Bcl-w was 37.5 ± 7.96 µM; at A1/Bfl-1 (setting [4]) it was 6.14 ± 1 µM. Further, in test [2], the “disruption of BL-Noxa/cellular Mcl-1 interaction, result in words” value is “effectively disrupted”.
The term IC50 denotes the concentration that gives 50% inhibition. Regarding `O=C(O)CSc1cc(NS(=O)(=O)c2ccccc2-c2ccccc2)c2ccccc2c1O` [Compound 16, 2-((4-([1,1′-Biphenyl]-2-ylsulfonamido)-1-hydroxynaphthalen-2-yl)thio)acetic acid], the Ki on Bcl-w came out at 4.41 ± 0.39 µM; at Mcl-1 [3] it was 2.03 ± 0.41 µM; at A1/Bfl-1, 17.3 ± 0.56 µM; at Bcl-xL it was 48.1 ± 3.28 µM. At Mcl-1 [3], the “fold improved binding to Mcl-1 compared to 2” value is recorded as 2 fold. At Mcl-1 [3] (competitive FP), the IC50 was 7.47 ± 1.47 µM.
Regarding `O=C(O)CSc1cc(NS(=O)(=O)c2ccc(Br)cc2)ccc1O` [Compound 22, 2-((5-(4-Bromophenylsulfonamido)-2-hydroxyphenyl)thio)acetic acid], the Ki on Bcl-w was > 90 µM; at Bcl-2, > 200 µM; on Mcl-1 [3] (setting [5]) it was > 200 µM; at A1/Bfl-1 (setting [4]), > 140 µM; on Bcl-xL (setting [6]), > 130 µM. In addition, the IC50 at Mcl-1 [3] (competitive FP) is > 800 µM.
As to `COC(=O)CSc1cc(NS(=O)(=O)c2ccc(Br)cc2)c2ccccc2c1O` [Compound 29, Methyl 2-((4-(4-bromophenylsulfonamido)-1-hydroxynaphthalen-2-yl)thio)acetate], the Ki on Bcl-w was > 90 µM; at Bcl-2, 23.8 ± 5.08 µM; at Mcl-1 [3] (setting [5]), 5.08 ± 1.35 µM; on A1/Bfl-1 (setting [4]), > 140 µM; on Bcl-xL (setting [6]), > 130 µM. Besides, on Mcl-1 [3] (competitive FP), the IC50 was 18.6 ± 4.93 µM.
